Measured values taken from PMC9181887, “In Vitro Antithrombotic, Hematological Toxicity, and Inhibitor Studies of Protocatechuic, Isovanillic, and p-Hydroxybenzoic Acids from Maclura tricuspidata (Carr.) Bur” (Molecules, 2022).
Like-named read-outs stand apart in the source and are kept apart here.

What was measured:
platelets = assay: Hematological study, platelet count by hemocytometer; assay type: cell-based; settings: 10 min, vs control
Experimental: (§1) Figure 1 Blood cytotoxic effect of PA (A), IVA (B), and 4-HA (C). Aliquots of washed platelets (10^3/mL), erythrocytes (10^6/mL), and leukocytes (10^3/mL) were treated with or without the compounds for 10 min and cell number was determined by hemocytometer counts. Each value is the mean ± SD of triplicate measurements. * p < 0.05 and ** p < 0.01, compared to each control groups. 10–500, 10–100 μg of each compound treated.
(§2) Total white blood cells (leukocytes) and red blood cells (erythrocytes) were counted using a hemocytometer, as previously described. Blood was diluted 1:200 with Hayem’s fluid and the cells were counted in a loaded hemocytometer chamber. To count the blood platelets, blood was diluted in a ratio of 1:20 with a diluting fluid, and four large (1 mm^2) corner squares of the hemocytometer were counted under a light microscope. Aliquots of leukocytes (0.1 mL; 10^3/mL), erythrocytes (0.1 mL; 10^6/mL), and platelets (0.1 mL; 10^3/mL) were treated with or without the compounds for 10 min.

platelet aggregation [1] = system: platelet aggregation; parameters: method as in PMID 20824965, PMID 9869276; settings: sodium arachidonate-induced platelet aggregation; cited from earlier work
human plasma [2] = assay: Coagulation assay, PT; assay type: biochemical; settings: 50–100 μg
Experimental: (§3) A coagulation assay was performed to evaluate the prolongation potential of the compounds in blood coagulation by measuring APTT, PT, and TT, as previously described. After pretreatment of the compounds with human plasma for 10 min, APTT, PT, and TT were determined by a coagulometer (Thrombostat 1) manufactured by Behnk Elektronik, Germany.

human FXIIIa = target: T1, human FXIIIa (Homo sapiens, UniProt P00488); assay: FXIIIa activity and kinetic/inhibitor assay; assay type: biochemical; settings: for FXIIIa activity: 1–20 μg, vs control, p < 0.05; for IC50 / Ki / Kik/Kiv / Kcat / Vmax: FXIIIa; for inhibition type against FXIIIa: from Kik/Kiv ratio and Lineweaver–Burk plots
T1 construct: purchased Sigma-Aldrich
T1 sequence (P00488 39-732 limits assumed): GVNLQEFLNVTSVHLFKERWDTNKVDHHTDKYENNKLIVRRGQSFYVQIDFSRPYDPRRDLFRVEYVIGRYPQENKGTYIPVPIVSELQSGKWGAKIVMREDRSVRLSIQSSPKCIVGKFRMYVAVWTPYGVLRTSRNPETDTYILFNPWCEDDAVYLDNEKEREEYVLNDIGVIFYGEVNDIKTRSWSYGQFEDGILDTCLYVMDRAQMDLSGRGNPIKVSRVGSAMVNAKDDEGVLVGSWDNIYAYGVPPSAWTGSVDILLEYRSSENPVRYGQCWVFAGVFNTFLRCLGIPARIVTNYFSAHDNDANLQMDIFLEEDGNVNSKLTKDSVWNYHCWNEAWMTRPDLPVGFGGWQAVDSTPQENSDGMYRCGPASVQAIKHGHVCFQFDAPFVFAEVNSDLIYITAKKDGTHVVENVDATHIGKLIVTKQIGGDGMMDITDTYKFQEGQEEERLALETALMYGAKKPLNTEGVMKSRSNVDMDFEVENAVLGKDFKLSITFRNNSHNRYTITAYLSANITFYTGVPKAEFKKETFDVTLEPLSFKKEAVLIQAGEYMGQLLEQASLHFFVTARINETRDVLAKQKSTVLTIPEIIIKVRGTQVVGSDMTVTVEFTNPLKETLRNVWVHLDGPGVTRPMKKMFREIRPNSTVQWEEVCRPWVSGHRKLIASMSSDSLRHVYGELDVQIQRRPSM
Experimental: To determine the thrombin activity, various concentrations of compounds were treated with 1 U human thrombin in 100 μL of 20 mM Tris-HCl, as previously described. The reaction solutions were incubated for 15 min at 37 °C. After the incubation, 1 mM chromogenic substrate for thrombin (S-2238, HD-Phe-Pip-Arg-p-nitroanilide) was added and incubated for 1 h at 37 °C. Absorbance was measured at 405 nm to determine the enzymatic activity. To determine FXa activity, various concentrations of the compounds were mixed with 1 U human FXa in 20 mM Tris-HCl (pH 7.4) in volume of 100 μL, followed by incubation for 15 min at 37 °C. After adding 1 mM N-benzoyl-Ile-Glu-Gly-Arg-p-nitroanilide, a highly specific chromogenic peptide substrate for FXa, the reaction solutions were incubated for 1 h at 37 °C. The residual activity of FXa was measured at 405 nm and is presented as a percentage of inhibition. To investigate FXIIIa activity, various concentrations of the compounds were mixed with 1 U human FXIIIa in 20 mM Tris-HCl (pH 7.4) in a volume of 100 μL, followed by, incubation for 15 min at 37 °C as previously described. The residual activity of FXIIIa was measured using casein and fibrinogen-HRP, according to the manufacturer’s instructions, and was presented as a percentage of inhibition. The negative control was generated by treatment with only thrombin, FXa, or FXIIIa without treatment with any compound.
Kinetic assays were performed using PA, IVA, and 4-HA for procoagulant proteases (thrombin and FXa) and fibrinoligase (FXIIIa). The kinetic constants were calculated using Lineweaver–Burk plots based on the initial reaction rates with different concentrations (0.1, 0.5, 1, and 2 mM) of each substrate for thrombin, FXa, and FXIIIa treated with or without the compounds (0.065, 0.13, 0.33, 0.65, and 1.30 mM [1–20 μg]) in a total volume of 100 μL. The Michaelis–Menten constant (Km) and maximal velocity (Vmax) were calculated from the x and y intercepts, respectively. […] The median inhibitory concentration (IC50) was defined as the concentration required to reach a 50% reduction in the activity of the three target factors. The Kik and Kiv inhibition constants were calculated using a previously described method. The inhibition type of the compounds against the three target factors was evaluated according to a previously described inhibition type definition.

diabetic rats = system: diabetic rats; parameters: method as in PMID 20824965, PMID 9869276; settings: cited from earlier work
human plasma [3] = assay: Coagulation assay, TT; assay type: biochemical; settings: 50–100 μg
Experimental: as §3

platelet aggregation [4] = system: platelet aggregation; parameters: method as in PMID 20824965, PMID 9869276; settings: ADP or collagen-induced platelet aggregation; cited from earlier work
erythrocytes = assay: Hematological study, erythrocyte count by hemocytometer; assay type: cell-based; settings: up to 200 μg/mL, 10 min, vs control
Experimental: as §1, §2

Row | Compound | effect on platelet number (platelets; 10–50 μg/mL) | FXIIIa activity (human FXIIIa) | IC50 (human FXIIIa) | Ki (human FXIIIa) | Kik/Kiv (human FXIIIa) | Kcat (human FXIIIa; compound 0.065 mM (1 μg)) | Vmax (human FXIIIa; compound 0.065 mM (1 μg)) | Kcat (human FXIIIa; compound 0.13 mM (2 μg)) | Vmax (human FXIIIa; compound 0.13 mM (2 μg)) | Kcat (human FXIIIa; compound 0.325 mM (5 μg)) | Vmax (human FXIIIa; compound 0.325 mM (5 μg)) | Kcat (human FXIIIa; compound 0.65 mM (10 μg)) | Vmax (human FXIIIa; compound 0.65 mM (10 μg)) | Kcat (human FXIIIa; compound 1.3 mM (20 μg)) | Vmax (human FXIIIa; compound 1.3 mM (20 μg)) | inhibition type against FXIIIa (human FXIIIa) | effect on the number of erythrocytes (erythrocytes) | other results
1 | O=C(O)c1ccc(O)cc1 [4-HA, 4-hydroxybenzoic acid] | did not cause any effect | significant reductions | 1.96 mM | 1.96 mM | 6005.6 | 88.6 ± 0.10 s⁻¹ | 0.142 ± 0.04 mU/min | 87.7 ± 0.09 s⁻¹ | 0.141 ± 0.04 mU/min | 77.2 ± 0.05 s⁻¹ | 0.124 ± 0.03 mU/min | 70.5 ± 0.07 s⁻¹ | 0.113 ± 0.03 mU/min | 62.0 ± 0.06 s⁻¹ | 0.099 ± 0.04 mU/min | non-competitive inhibition type | – | IC50 (platelet aggregation [1]): 300 µM; PT, fold of control (human plasma [2]): 1.25–1.26 fold; prothrombin time (PT) (human plasma [2]; control 20.8 ± 0.7 s, p < 0.05): 25.9 to 26.2 s; plasma glucose levels (diabetic rats): reducing plasma glucose levels in a dose-dependent manner; TT, fold of control (human plasma [3]): 1.14–1.15 fold; thrombin time (TT) (human plasma [3]; control 9.4 ± 0.2 s, p < 0.01): 10.7 to 10.8 s; IC50 (platelet aggregation [4]): 1 to 3.4 mM
2 | COc1ccc(C(=O)O)cc1O [IVA, isovanillic acid] | did not cause any effect | significant reductions | 1.92 mM | 1.92 mM | 10.4 | 89.3 ± 0.09 s⁻¹ | 0.143 ± 0.02 mU/min | 84.5 ± 0.07 s⁻¹ | 0.135 ± 0.03 mU/min | 80.5 ± 0.05 s⁻¹ | 0.129 ± 0.04 mU/min | 80.5 ± 0.09 s⁻¹ | 0.129 ± 0.03 mU/min | 68.7 ± 0.08 s⁻¹ | 0.110 ± 0.04 mU/min | non-competitive inhibition type | did not show any effect | –
3 | O=C(O)c1ccc(O)c(O)c1 [PA, protocatechuic acid] | – | significant reductions | 1.64 mM | 1.63 mM | 6.1 | 91.1 ± 0.03 s⁻¹ | 0.146 ± 0.03 mU/min | 84.4 ± 0.06 s⁻¹ | 0.135 ± 0.02 mU/min | 80.1 ± 0.05 s⁻¹ | 0.128 ± 0.03 mU/min | 71.8 ± 0.07 s⁻¹ | 0.115 ± 0.04 mU/min | 62.5 ± 0.04 s⁻¹ | 0.100 ± 0.02 mU/min | non-competitive inhibition type | did not show any effect | effect on platelet number (platelets; 10–100 μg/mL): did not cause any effect
